From article PMC8175350, “Drug repurposing screens identify chemical entities for the development of COVID-19 interventions” (Nature Communications, 2021)
Structures can show the parent of a compound that is named as a salt. Where two headings read alike, the source gives them in different places.

Legend:
SARS-CoV-2 [1] = test: microbe, parasite or virus in culture; type: cell-based; details: for Emax: Severe acute respiratory syndrome coronavirus 2, Calu-3, 48 h; for EC50: read-out: Calu-3 CoV-2 EC50 GeoMean
Calu-3 cells [2] = test: Uninfected Calu-3 48 h Cell-Titer Glo cytotoxicity counter screen; details: for Calu-3 uninfected cytotoxicity Sinf Average (%): Sinf average of the curves; for Calu-3 uninfected cytotoxicity Sinf Average: curve-fit effect at infinite concentration
in vitro = details: human
[3] = Uninfected HeLa-ACE2 24 h live/dead cytotoxicity counter screen; type: cell-based, human; details: human, uninfected HeLa-ACE2 cells
HeLa-ACE2 cells [4] = test: as above; type: cell-based, human; details: for HeLa-ACE2 uninfected cytotoxicity Sinf Average (%): Sinf average of the curves; for HeLa-ACE2 uninfected cytotoxicity Sinf Average: curve-fit effect at infinite concentration
Calu-3 cells [5] = test: cells; details: Homo sapiens; for Emax: Calu-3, 48 h
SARS-CoV-2 [6] = test: microbe, parasite or virus in culture; type: cell-based; details: for EC50: Severe acute respiratory syndrome coronavirus 2, HeLa-ACE2, read-out: HeLa-ACE2 CoV-2 EC50 GeoMean; for Emax: Severe acute respiratory syndrome coronavirus 2, HeLa-ACE2, 24 h, curve-fit effect at infinite concentration, average, read-out: HeLa-ACE2 CoV-2 Sinf Average
HeLa-ACE2 cells [7] = test: cells; details: Homo sapiens; for Emax: HeLa-ACE2, 24 h, read-out: HeLa-ACE2 cell count Sinf Average
Calu-3 cells [8] = details: for Calu-3 uninfected cytotoxicity Sinf Average / Calu-3 uninfected cytotoxicity Sinf Average (%): human
[9] = Sinf average of the curves, read-out: Calu-3 CoV-2 Sinf Average (%)
[10] = Severe acute respiratory syndrome coronavirus 2, Calu-3, geometric mean of replicates
[11] = Calu-3 uninfected cytotoxicity CC50 GeoMean (µM), geometric mean of replicates
[12] = geometric mean of replicates, read-out: HeLa-ACE2 uninfected cytotoxicity CC50 GeoMean
[13] = read-out: Calu-3 cell count Sinf Average (%)
[14] = Calu-3, read-out: Calu-3 cell count EC50 GeoMean (µM), geometric mean of replicates
[15] = HeLa-ACE2, read-out: HeLa-ACE2 cell count EC50 GeoMean (µM), geometric mean of replicates
[16] = curve-fit effect at infinite concentration, average, read-out: Calu-3 CoV-2 Sinf Average
[17] = Severe acute respiratory syndrome coronavirus 2, Calu-3, unrounded geometric mean
[18] = Calu-3 uninfected cytotoxicity CC50 GeoMean, unrounded geometric mean
[19] = uninfected cells, Fig. 2b group, read-out: HeLa-ACE2 CC50
[20] = unrounded geometric mean, read-out: HeLa-ACE2 uninfected cytotoxicity CC50 GeoMean
[21] = read-out: Calu-3 cell count Sinf Average
[22] = Calu-3, read-out: Calu-3 cell count EC50 GeoMean, unrounded geometric mean
[23] = HeLa-ACE2, read-out: HeLa-ACE2 cell count EC50 GeoMean, unrounded geometric mean
[24] = Calu-3 uninfected cytotoxicity CC50 GeoMean
[25] = Calu-3 uninfected cytotoxicity CC50 GeoMean (µM)

SMILES	Emax (SARS-CoV-2 [1]; [9]) [%]	EC50 (SARS-CoV-2 [1]; [10]) [nM]	CC50 at 24 h [3, 12] [nM]	HeLa-ACE2 uninfected cytotoxicity Sinf Average (%) (HeLa-ACE2 cells [4])	Emax (Calu-3 cells [5]; [13]) [%]	EC50 (Calu-3 cells [5]; [14]) [µM]	EC50 (SARS-CoV-2 [6]; geometric mean of replicates) [nM]	EC50 (HeLa-ACE2 cells [7]; [15]) [µM]	Emax (SARS-CoV-2 [1]; [16]) [%]	EC50 (SARS-CoV-2 [1]; [17]) [nM]	CC50 (in vitro; [18]) [µM]	CC50 at 24 h [3, 19] [nM]	CC50 at 24 h [3, 20] [nM]	HeLa-ACE2 uninfected cytotoxicity Sinf Average (HeLa-ACE2 cells [4]) [%]	Emax (Calu-3 cells [5]; [21]) [%]	EC50 (Calu-3 cells [5]; [22]) [µM]	Emax (SARS-CoV-2 [6]) [%]	EC50 (SARS-CoV-2 [6]; unrounded geometric mean) [nM]	Emax (HeLa-ACE2 cells [7]) [%]	EC50 (HeLa-ACE2 cells [7]; [23]) [µM]	other results
CCOc1ccc(Cc2nc3cc(N(C)S(=O)(=O)c4cccs4)ccc3n2CC2CCCCC2)nc1 [AZ-11713908]	93	3530	> 33000	-100	100	> 9.73	> 9590	> 9.59													Calu-3 uninfected cytotoxicity Sinf Average (%) (Calu-3 cells [2]): -95%; CC50 (in vitro; [11]): > 29.9 µM
COC(=O)[C@@]12OC[C@]34[C@H]([C@@H](O)[C@@H]1O)[C@@]1(C)CC(=O)C(O)=C(C)[C@@H]1C[C@H]3OC(=O)[C@H](OC(=O)/C=C(\C)C(C)C)[C@@H]24 [Bruceantin]									99	19.4	0.973	≤ 3000	< 117	-100	-100	> 6.92	98	5.78	99	0.0968	Calu-3 uninfected cytotoxicity Sinf Average (Calu-3 cells [2]): -53%
CC[C@H]1CN2CCc3cc(OC)c(OC)cc3[C@@H]2C[C@@H]1C[C@H]1NCCc2cc(O)c(OC)cc21 [Cephaeline]									96	142	> 4.96	≤ 3000	212	-100	100	> 6.92	99	16.8	107	0.309	Calu-3 uninfected cytotoxicity Sinf Average (Calu-3 cells [2]): -68%
C[C@@H]1C[C@@H]([C@H](O)CC2CC(=O)NC(=O)C2)C(=O)[C@@H](C)C1 [Cycloheximide]									98	195	> 2.43	≤ 3000	1470	-80	50	0.268	101	634	100	> 9.44	Calu-3 uninfected cytotoxicity Sinf Average (Calu-3 cells [8]): -39%
CO[C@H]1C[C@H](O[C@H]2CC[C@]3(C=O)[C@H]4CC[C@]5(C)[C@@H](C6=CC(=O)OC6)CC[C@]5(O)[C@@H]4CC[C@]3(O)C2)O[C@H](C)[C@H]1O [Cymarine]									87	135	> 5.87	≤ 3000	287	-95	-100	> 9.98	93	237	100	0.311	Calu-3 uninfected cytotoxicity Sinf Average (Calu-3 cells [2]): -40%
CNC(=O)n1ccc2cc(Oc3ccnc(NC(=O)c4ccc(C5CCN(CCO)CC5)cc4)c3)c(OCCOC)cc21 [E-7090]									62	753			21200	-100	73	> 2.59	100	2640		> 9.59	CC50 at 48 h (in vitro; [24]): 15 µM; uninfected Calu-3 CC50 (Calu-3 cells [8]): 14.98 ×÷ 1.32 (n=3) μM; Calu-3 uninfected cytotoxicity Sinf Average (Calu-3 cells [8]; 48 h): -97%
O=C(Nc1ccc(Cl)c(S(=O)(=O)N2CCNCC2)c1O)Nc1cccc(F)c1Cl [Elubrixin tosylate]	100	6910	> 39800	-100	67	> 9.98	> 9590	> 9.59													Calu-3 uninfected cytotoxicity Sinf Average (%) (Calu-3 cells [2]): -100%; CC50 at 48 h (in vitro; [11]): > 29.6 µM
CC[C@H]1CN2CCc3cc(OC)c(OC)cc3[C@@H]2C[C@@H]1C[C@H]1NCCc2cc(OC)c(OC)cc21 [Emetine]									100	444	> 8.87	≤ 3000	340	-99	78	> 3.56	100	60.1	98	0.783	Calu-3 uninfected cytotoxicity Sinf Average (Calu-3 cells [8]): -47%
N#Cc1cccc(C(C(=O)NCC(c2ccccc2)c2ccccc2)N(CCc2c[nH]cn2)C(=O)c2ccccc2C(=O)c2ccccc2)c1 (stereo not drawn) [GENZ-29155]	79	> 4660	> 38500	-67		> 9.98	> 9590	> 9.59													CC50 at 48 h (in vitro; [25]): > 29.9 µM; HeLa-ACE2 CoV-2 Sinf Average (%) (SARS-CoV-2 [6]; Sinf average of the curves): -67%; uninfected Calu-3 CC50 [μM] (Calu-3 cells [8]): > 29.867 ×÷ 1 (n=3) μM; Calu-3 uninfected cytotoxicity Sinf Average (%) (Calu-3 cells [8]; 48 h): 0%
CCCCCCCC/C=C/CCCCCCCC(=O)OC[C@H]1O[C@@H](n2ccc(N)nc2=O)C(F)(F)[C@@H]1O [Gemcitabine elaidate]									90	324		≤ 3000	< 5.82	-53	48	> 3.7		> 9590	51	< 0.0122	CC50 at 48 h (in vitro; [24]): > 29.9 µM; uninfected Calu-3 CC50 (Calu-3 cells [8]): > 29.867 ×÷ 1 (n=3) μM; Calu-3 uninfected cytotoxicity Sinf Average (Calu-3 cells [8]; 48 h): -100%
CSc1ccc(CN2CCCC(Nc3ccc4[nH]ncc4c3)C2)cc1 (stereo not drawn) [INS-117548]	77	> 3550	> 39800	-100	55	0.31	> 9590	> 9.59													CC50 at 48 h (in vitro; [25]): > 29.9 µM; uninfected Calu-3 CC50 [μM] (Calu-3 cells [8]): > 29.875 ×÷ 1 (n=2) μM; Calu-3 uninfected cytotoxicity Sinf Average (%) (Calu-3 cells [8]; 48 h): -92%
CC(=O)O[C@H]1C[C@H](O[C@H]2[C@@H](O)C[C@H](O[C@H]3[C@@H](O)C[C@H](O[C@H]4CC[C@@]5(C)[C@H](CC[C@@H]6[C@@H]5C[C@@H](O)[C@]5(C)[C@@H](C7=CC(=O)OC7)CC[C@]65O)C4)O[C@@H]3C)O[C@@H]2C)O[C@H](C)[C@H]1O[C@@H]1O[C@H](CO)[C@@H](O)[C@H](O)[C@H]1O [Lanatoside C]									86	194	> 6.21	≤ 3000	1350	-101	-33	> 9.98	97	206	96	0.379	Calu-3 uninfected cytotoxicity Sinf Average (Calu-3 cells [2]): -28%
C[C@]12O[C@H](C[C@]1(O)CO)n1c3ccccc3c3c4c(c5c6ccccc6n2c5c31)CNC4=O [Lestaurtinib]									91	674	> 20.1	≤ 3000	758	-100	100	> 4.71	99	546	102	0.614	Calu-3 uninfected cytotoxicity Sinf Average (Calu-3 cells [8]): -98%
O[C@@H]1CO[C@H]2[C@@H]1OC[C@H]2Oc1nc2nc(-c3ccc(-c4ccccc4)cc3)c(Cl)cc2[nH]1 [MK-8722]	100	2730	> 37400	-100	100	> 5.66	> 9590	> 9.59													CC50 at 48 h (in vitro; [25]): > 29.9 µM; uninfected Calu-3 CC50 [μM] (Calu-3 cells [8]): > 29.867 ×÷ 1 (n=3) μM; Calu-3 uninfected cytotoxicity Sinf Average (%) (Calu-3 cells [8]; 48 h): -95%
CC(C)(C)c1ccc(CSc2cnn(C(C)(C)C)c(=O)c2Cl)cc1 [Pyridaben]	93	205	> 39800		47	0.345	> 9590	> 9.59													Calu-3 uninfected cytotoxicity Sinf Average (%) (Calu-3 cells [2]): -94%; CC50 (in vitro; [11]): > 8.99 µM
O=c1[nH]ccc2cc(OC3CCNCC3)ccc12 [SAR-407899]	54	> 3850	> 38700	-100	97	2.72	> 9590	> 9.59													CC50 at 48 h (in vitro; [25]): > 29.9 µM; uninfected Calu-3 CC50 [μM] (Calu-3 cells [8]): > 29.867 ×÷ 1 (n=3) μM; Calu-3 uninfected cytotoxicity Sinf Average (%) (Calu-3 cells [8]; 48 h): 0%
